Experiments:
Format in all cases: cell-based
[1] = system: human adipose tissue-derived stem cells; test: Culture of stem cells in AMSC+ medium with 25 kGy gamma-irradiated FBS and vitamin C post-treatment (Example 2): cell number, doubling time; settings: for Cell No. / Doubling time: Ad-MSC (P4)
Method: Fetal bovine serum (FBS) was irradiated with 25 kGy of gamma radiation (Soyagreentec Co., Ltd.), thereby preparing gamma-irradiated FBS. Then, the human adipose tissue-derived stem cells at passage 3, isolated in Example 1, were thawed and inoculated into T75 flasks at a concentration of 0.5×10^6 cells/T75 flask, and the inoculated cells were cultured with AMSC+ culture medium (R-Bio Co., Ltd.) containing the prepared gamma-irradiated FBS at a concentration of 5% in a CO2 incubator at 37° C. for 2 days. After 2 days of culture, the medium was removed and replaced with either AMSC+ culture medium containing 5% gamma-irradiated FBS (a negative control group) or medium obtained by adding vitamin C (ascorbic acid; L-Ascorbic Acid 2-phosphate) to AMSC+ culture medium containing 5% gamma-irradiated FBS (a vitamin C post-treatment test group). Vitamin C was added to the culture medium at concentrations of 0.025, 0.05, 0.1 and 1%. The AMSC+ culture medium (R-Bio Co., Ltd.) is a 1:1 mixture of KSFM-P medium (containing Defined Keratinocyte-SFM, 0.2 mM L-ascorbic acid 2-phosphate, 5 μg/ml insulin, 2 mM N-acetyl-L-cysteine, 0.09 mM calcium chloride, 74 ng/ml hydrocortisone and 5% FBS) and DMEM medium. After 4 days of culture, the cell proliferation rate and doubling time of the cells were examined. The viability of the cells was examined with a microscope and a hemocytometer, and the doubling time was calculated using the following equation: Doubling Time=duration×log(2)/log(final concentration)−log(initial concentration). [Equation 1] A positive control group was cultured using 5% normal FBS (which was not irradiated with gamma radiation) and AMSC+ culture medium in the same manner as the negative control group and the test group.

[2] = system: human adipose tissue-derived stem cells; test: Culture of stem cells using 25 kGy gamma-irradiated FBS with vitamin C pre- or post-treatment (Example 3): cell number, doubling time; settings: for Cell No. / Doubling time: Ad-MSC (P4), 4 days of culture
Method: After 4 days of culture, the cell proliferation rate and doubling time of the cells were examined. The viability of the cells was examined with a microscope and a hemocytometer, and the doubling time was calculated using the following equation: Doubling Time=duration×log(2)/log(final concentration)−log(initial concentration). [Equation 1] Fetal bovine serum (FBS) was irradiated with 25 kGy of gamma radiation, thereby preparing gamma-irradiated FBS. Vitamin C (ascorbic acid; L-Ascorbic Acid 2-phosphate) was added to the FBS which was then irradiated with 25 kGy of gamma irradiation, thereby preparing gamma-irradiated FBS pretreated with vitamin C. The vitamin C was added to the FBS at a concentration of 0.1% or 1%. Then, the human adipose tissue-derived stem cells at passage 3, isolated in Example 1, were thawed and inoculated into T75 flasks at a concentration of 0.5×10^6 cells/T75 flask, and the inoculated cells were cultured with AMSC+ culture medium (R-Bio Co., Ltd.) containing the prepared gamma-irradiated FBS or gamma-irradiated FBS pretreated with vitamin C at a concentration of 5% in a CO2 incubator at 37° C. for 2 days. After 2 days of culture, the medium was removed and replaced with AMSC+ culture medium containing 5% gamma-irradiated FBS (a negative control group), medium obtained by adding vitamin C to AMSC+ culture medium containing 5% gamma-irradiated FBS (a vitamin C post-treatment test group), or AMSC+ culture medium containing 5% gamma-irradiated FBS pretreated with vitamin C (a vitamin C pre-treatment test group). Vitamin C was added to the culture medium or FBS at a concentration of 0.1 or 1%. After 4 days of culture, the cell proliferation rate and doubling time of the cells were examined in the same manner as described in Example 2 above. A positive control group was also prepared as described in Example 2 above.

[3] = system: human adipose tissue-derived stem cells; test: Adhesion of stem cells cultured in 25 kGy gamma-irradiated FBS: time at which stem cell density reached 90% (Example 4); settings: 25 kGy FBS, passage 0 cells
Method: In the same manner as described in Example 3 above, fetal bovine serum (FBS) was irradiated with 25 kGy of gamma radiation, thereby preparing gamma-irradiated FBS. Vitamin C (ascorbic acid; L-Ascorbic Acid 2-phosphate) was added to the FBS which was then irradiated with 25 kGy of gamma irradiation, thereby preparing gamma-irradiated FBS pretreated with vitamin C. The vitamin C was added to the FBS at a concentration of 1%. Then, the human adipose tissue-derived stem cells at passage 0, isolated in Example 1, were thawed and inoculated into T25 flasks at a concentration of 1.7×10^3 cells/T25 flask, and the inoculated cells were cultured with AMSC+ culture medium (R-Bio Co., Ltd.) containing the prepared gamma-irradiated FBS or gamma-irradiated FBS pretreated with vitamin C at a concentration of 5% in a CO2 incubator at 37° C. for 2 days. After 2 days of culture, the medium was removed and replaced with AMSC+ culture medium containing 5% gamma-irradiated FBS (a negative control group), medium obtained by adding vitamin C to AMSC+ culture medium containing 5% gamma-irradiated FBS (a vitamin C post-treatment test group), or AMSC+ culture medium containing 5% gamma-irradiated FBS pretreated with vitamin C (a vitamin C pre-treatment test group). Vitamin C was added to the culture medium or FBS at a concentration of 1%. A positive control group was also prepared as described in Examples 2 and 3 above. For each control group and the test group, examination was performed of the time at which the density of the stem cells reached 90% so that these cells could be sub-cultured.

[4] = 25 KGy FBS + 0.025% AA2P added to medium, 4 days of culture
[5] = 25 KGy FBS + 0.05% AA2P added to medium, 4 days of culture
[6] = 25 KGy FBS + 0.1% AA2P added to medium, 4 days of culture
[7] = 25 KGy FBS + 1% AA2P added to medium, 4 days of culture
[8] = vitamin C post-treatment, 25 kGy FBS, 4 days of culture
[9] = 0.1% AA2P post-treatment + 25 KGy
[10] = 0.1% AA2P pre-treatment + 25 KGy
[11] = 1% AA2P post-treatment + 25 KGy

## O=C1O[C@H]([C@@H](O)CO)C(O)=C1OP(=O)(O)O [AA2P, L-Ascorbic Acid 2-phosphate]
[1]; [4]
  Cell No.: 10.035 ×10^6 cells
  Doubling time: 31.33 h
[1]; [5]
  Cell No.: 9.5 ×10^6 cells
  Doubling time: 32.16 h
[1]; [6]
  Cell No.: 10.6 ×10^6 cells
  Doubling time: 30.54 h
[1]; [7]
  Cell No.: 12 ×10^6 cells
  Doubling time: 28.9 h
[1]; [8]
  cell number versus negative control group: increased compared to the negative control group
  doubling time versus negative control group: decreased compared to the negative control group
[1]; vitamin C post-treatment, 25 kGy FBS, days 0, 1 and 4 (FIG. 1)
  microscope observation of stem cells: levels similar to those of the positive control group
[2]; [9]
  Cell No.: 10.6 ×10^6 cells
  Doubling time: 21 h
[2]; [10]
  Cell No.: 10.2 ×10^6 cells
  Doubling time: 21 h
[2]; [11]
  Cell No.: 14.0 ×10^6 cells
  Doubling time: 19 h
[2]; 1% AA2P pre-treatment + 25 KGy
  Cell No.: 10.0 ×10^6 cells
  Doubling time: 21 h
[2]; vitamin C post-treatment and pre-treatment test groups, 25 kGy FBS, 4 days
  cell number and doubling time versus positive control group: increased to the levels of the positive control group
[2]; vitamin C post-treatment and pre-treatment test groups, 25 kGy FBS, day 4 (FIG. 3)
  microscope observation of stem cells: levels similar to those of the positive control group
[3]; Post-treatment with 1% Vit. C
  Density (90%): day of culture on which stem cell density reached 90%: Day 10
[3]; Post-treatment with 1% Vit. C, listed as vitamin C
  Density (90%): day of culture on which stem cell density reached 90%: 13 days
[3]; Pre-treatment with 1% Vit. C
  Density (90%): day of culture on which stem cell density reached 90%: Day 13
[3]; Pre-treatment with 1% Vit. C, listed as vitamin C
  Density (90%): day of culture on which stem cell density reached 90%: 10 days
